According to patent EP0337167B1, “4-Aryl-4-piperidine (or pyrrolidine or hexahydroazepine) carbinols and heterocyclic analogs thereof” (THE DU PONT MERCK PHARMACEUTICAL COMPANY, priority 1988, dated 1989):
Where two headings read alike, the source gives them in different places.

Columns and labels:
Male CF1 mice = test: Mouse antiphenylquinone writhing (PQW) test; type: in vivo; design: Mouse PQW ED50 (mg/kg): unit not given here; settings: for ED50: Mus musculus, 0.5 h, phenylquinone 1.25 mg/kg i.p., observation beginning 30 min after injection of test compound; for ED50 / Mouse PQW remark: Table 3; for Mouse PQW remark: remark beside S.C and P.O values; for Mouse PQW ED50 (mg/kg): Table 4, 3° carbinols within the scope of U.S. 4,485,109, head prints neither endpoint nor unit
Protocol: The anti-pheylquinone writhing (PQW) test modified from the methods of Siegmund et al. (Proc. Soc. Exp. Biol. Med. 95: 729-731, 1957) and Blumberg et al. (Proc. Exp. Biol. Med. 118: 763-767, 1965) was used to assess analgesia in mice. Male CF1 mice (Charles River Breeding Laboratories, Wilmington, MA), fasted for 16-22 h and weighing 18-23 g, were injected with randomized and coded doses of test compounds, then challenged with 1.25 mg/kg i.p. phenyl-p-benzoquinone (phenylquinone) 5 min prior to the specified observation time. The phenylquinone solution (0.1 mg/ml in 5% aqueous ethanol) was prepared daily and stored in foil-wrapped amber bottles to limit degradation. Mice were observed 10 min for the presence or absence of the characteristic abdominal constriction and stretching response beginning 30 min after injection of the test compound. Analgetic activity was calculated as the percentage of mice failing to respond to the phenylquinone challenge dose. […] Median effective doses (ED50's) and 95% confidence limits were determined numerically by the methods of Thompson (Bacteriological Rev. 11: 115-145, 1947), and Litchfield and Wilcoxon (J. Pharmacol. Exp. Ther. 96: 99.113, 1949).
The data shown in Table show the PQW ED₅₀ values for the compounds of the aforesaid examples.
Table 4 illustrates that the 3° carbinols within the scope of U.S. 4,485,109 have utility as analgesic agents.

[1] = literature statement (A. L. Morrison et al., J.Chem. Soc., 1467, 1950); cited from earlier work
Male CF mice = test: Antagonism of tetrabenazine-induced depression (exploratory loss and ptosis) in mice; type: in vivo; settings: Mus musculus, po, 1 h, orally, one hour post-drug, tetrabenazine methane sulfonate 52 mg/kg i.p., read-out: Oral ED₅₀ (mg/kg) for Prevention of Ptosis
Excerpt: The prevention of tetrabenazine-induced sedation and depression in mice is a standard procedure used to detect and compare antidepressant compounds. The activity of antidepressant compounds in this procedure correlates well with human efficacy. (Barnett, et al., Int. J. Neuropharmac. 8: 73-79, 1969, and Vernier, et al., "The Pharmacodynamics of Amitriptyline" in Psychsomatic Medicine (Nodine & Moyer, editors) pp. 683-690, 1962).
Male CF mice (Charles River Breeding Laboratories, Wilmingon, MA), fasted for 16-22 hours and weighing 18-25 g, were injected with randomized and coded does of test compounds, then challenged with 52 mg/kg i.p. tetrabenazine methane sulfonate 30 minutes prior to the specified observation time. The tetrabenazine methane sulfonate solution (5.2 mg/ml in distilled water) was prepared daily and stored in foil-wrapped amber bottles to limit degradation. […] Exploratory loss was defined as failing to move to the perimeter of a 12.7 cm (5 inch) (12.7 cm) circle within 15 seconds of being placed at the center of the circle. Ptosis was defined as both eyelids closed 50% or more compared to normal. Antidepressant activity was calculated as the percentage of mice failing to respond to the tetrabenazine challenge dose. […] Median effective does (ED₅₀'s) were estimated using the Moving Average method of Thompson (Bacteriological Rev. 11: 115-145, 1947).
The data in Table 5 show ED₅₀ values for the compounds of the aforesaid examples.

[2] = po, p.o., read-out: Mouse PQW ED₅₀ (Mg/Kg) P.O
[3] = sc, s.c., read-out: Mouse PQW ED₅₀ (Mg/Kg) S.C

| SMILES | ED50 (Male CF1 mice; [2]) | ED50 (Male CF1 mice; [3]) | Mouse PQW ED50 (mg/kg) (Male CF1 mice; p.o.) | further results |
| --- | --- | --- | --- | --- |
| CC(O)C1(c2cccc(Cl)c2)CCCN(C)CC1 (stereo not drawn) [Example 71, 4-(3'-Chlorophenyl)-α,1-dimethyl-2,3,4,5,6,7-hexahydro-1H-azepine-4-methanol] | 16 mg/kg | 8.1 mg/kg |  |  |
| CC(O)C1(c2ccccc2F)CCN(C)CC1 (centres unmarked) [Example 4] | > 81 mg/kg | > 81 mg/kg |  | Mouse PQW remark (Male CF1 mice): Inactive |
| CCCC(O)C1(c2cccc(Cl)c2)CCN(C)CC1 (centres unmarked) [Example 36] | > 81 mg/kg | 67 mg/kg |  |  |
| CCCN1CCC(c2cccc(Cl)c2)(C(C)O)CC1 (centres unmarked) [Example 34] | > 81 mg/kg | 38 mg/kg |  |  |
| CN1CCC(c2ccsc2)(C(C)(C)O)CC1 [Example 44] | 24 mg/kg | 6.5 mg/kg |  |  |
| CC(O)C1(c2ccc(Cl)c(Cl)c2)CCN(C)CC1 (centres unmarked) [Example 9] | 32 mg/kg | > 81 mg/kg |  |  |
| COc1cccc(C2(C3(O)CCCCC3)CCN(C)CC2)c1 [GG] |  |  | <108.0 |  |
| CN1CCC(c2cccc3ccccc23)(C(C)(C)O)CC1 [Example 50] | 67 mg/kg | 24 mg/kg |  |  |
| CN1CCC(c2ccccn2)(C(C)(C)O)CC1 [Example 46, reference compound] | > 81 mg/kg | > 81 mg/kg |  | Mouse PQW remark (Male CF1 mice): Inactive |
| CCCCC(O)C1(c2cccc(Cl)c2)CCN(C)CC1 (centres unmarked) [Example 37] | > 81 mg/kg | 48 mg/kg |  |  |
| CCC(C)(O)C1(c2cccc(C(F)(F)F)c2)CCN(C)CC1 (centres unmarked) [V] |  |  | 23.0 |  |
| COc1cccc(C2(C3(O)CCC3)CCN(C)CC2)c1 [EE] |  |  | >54.0 | Mouse PQW ED50 (mg/kg) (Male CF1 mice; s.c.): 22.0 |
| CC(O)C1(c2ccc3ccccc3c2)CCN(C)CC1 (centres unmarked) [Example 25] | > 81 mg/kg | 16 mg/kg |  |  |
| CN1CCC(c2cccc(F)c2)(C(C)(C)O)CC1 [X] |  |  | >81.0 | Mouse PQW ED50 (mg/kg) (Male CF1 mice; s.c.): 10.0 |
| COc1cccc(C2(C(C)(C)O)CCN(C)CC2)c1 [BB] |  |  | 19.0 | Mouse PQW ED50 (mg/kg) (Male CF1 mice; s.c.): 12.0 |
| CCC(O)C1(c2ccccc2)CCN(C)CC1 (centres unmarked) [4-phenyl-1-methyl-4-(1-hydroxypropyl)piperidine, reference compound] |  |  |  | analgesic activity compared with the parent ketones [1]: much less active as analgesics than the parent ketones |
| CN1CCC(c2cccc(C(F)(F)F)c2)(C2(O)CCCC2)CC1 [W] |  |  | 12.0 | Mouse PQW ED50 (mg/kg) (Male CF1 mice; s.c.): 16.0 |
| CN1CCC(c2cccc(O)c2)(C(C)(C)O)CC1 [AA] |  |  | >81.0 | Mouse PQW ED50 (mg/kg) (Male CF1 mice; s.c.): 62.0 |
| CC(O)C1(c2ccc(F)c(F)c2)CCN(C)CC1 (centres unmarked) [Example 7] | > 81 mg/kg | 38 mg/kg |  |  |
| CSc1ccc(C2(C(C)(C)O)CCN(C)CC2)cc1 [II] |  |  | 59.0 |  |
| COc1ccc(C2(C(C)O)CCN(C)CC2)cc1 (centres unmarked) [Example 17] | > 81 mg/kg | > 81 mg/kg |  | Mouse PQW remark (Male CF1 mice): Inactive; ED50 (Male CF mice): 1.3 mg/kg |
| CC(O)C1(c2csc3ccccc23)CCN(C)CC1 (centres unmarked) [Example 29] | 47 mg/kg | 6.8 mg/kg |  |  |
| CC1CCC(O)(C2(c3cccc(C(F)(F)F)c3)CCN(C)CC2)C1 (centres unmarked) [Y] |  |  | 25.0 |  |
| CC(=O)OC(C)C1(c2cccc(Cl)c2)CCN(C)CC1 (stereo not drawn) [Example 66, 4-(3'-Chlorophenyl)-α,1-dimethyl-4-piperidinemethanol-Acetate] | 19 mg/kg | 13 mg/kg |  |  |
| COC(C)C1(c2cccc(Cl)c2)CCN(C)CC1 (centres unmarked) [Example 68] | 19 mg/kg | 6.5 mg/kg |  |  |
| CN1CCC(c2cccc(Br)c2)(C(C)(C)O)CC1 [Example 41, 4-(3'-Bromophenyl)-α,α,1-trimethyl-4-piperidinemethanol] | 24 mg/kg | 19 mg/kg |  |  |
| C=CCN1CCC(c2cccc(Cl)c2)(C(C)(C)O)CC1 [Example 42, 1-allyl,4-(3'-chlorophenyl)-α,α dimethyl-4-piperidinemethanol] | 54 mg/kg | 27 mg/kg |  |  |
